According to patent US20120190669A1, “OXINDOLE COMPOUNDS” (CYLENE PHARMACEUTICALS, INC., priority 2008, published 2012):
pIC50: −log10 of the molar value.

molecular target: recombinant PIM-1 (Homo sapiens, UniProt P11309); assay: PIM-1 kinase assay (radiometric, 15 uM ATP, DMSO 4%); assay type: biochemical; conditions: not given
Procedure: The following procedure was used to assay the PIM-1 kinase activity of compounds of the invention. Other methods for assaying PIM-1 and other PIM kinases, as well as methods to assay for activity against the various kinases in FIG. 1, are known in the art.
(specific activity approx. 500 cpm/pmol), DMSO 4% and test inhibitor compound at the required concentration. The reaction was initiated by the addition of the Magnesium ATP mixture. After 40 min incubation at 23° C., the reactions were quenched by the addition of 100 ul 0.75% Phosphoric acid, and the labeled peptide collected by filtration through a phosphocellulose filter plate. The plate was washed 4 times with 0.075% phosphoric acid (100 ul per well) and then, after the addition of scintillation fluid (20 ul per well), the counts were measured by a scintillation counter.

recombinant PIM-1, sequence (P11309 whole entry): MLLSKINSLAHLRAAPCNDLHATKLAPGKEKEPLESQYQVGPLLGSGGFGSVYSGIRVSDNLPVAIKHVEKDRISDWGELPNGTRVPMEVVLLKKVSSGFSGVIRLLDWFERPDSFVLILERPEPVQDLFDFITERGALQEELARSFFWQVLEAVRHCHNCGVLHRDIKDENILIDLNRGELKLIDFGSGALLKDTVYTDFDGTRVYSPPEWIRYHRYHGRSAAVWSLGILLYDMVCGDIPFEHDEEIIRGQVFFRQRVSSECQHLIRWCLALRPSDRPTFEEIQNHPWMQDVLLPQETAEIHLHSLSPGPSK

With CCC(=O)Nc1cc(C(=O)NCCN2CCCC2)ccc1-c1ccc(/C=C2/C(=O)Nc3ccccc32)o1 [Compound 168] the inhibition at 2 µM was -14.9%.

same assay, conditions: Table 1; % inhibition at the high dose (2 micromolar) in a single screening assay; 15 μM ATP

First: O=C1Nc2ccc(Cl)cc2/C1=C\c1ccc(-c2cccc(C(=O)N3CCCC(O)C3)c2)o1 (stereo not drawn) [Compound 178]
Second: CN1CCCC(NC(=O)c2cccc(-c3ccc(/C=C4/C(=O)Nc5ccc(Cl)cc54)o3)c2)C1 (stereo not drawn) [Compound 111]
The inhibition at 2 µM of the first is lower: -19.4% for the first, 42.6% for the second.

Compared with O=C1Nc2ccc(Cl)cc2/C1=C\c1ccc(-c2cccc(C(=O)NCc3ccccn3)c2)o1 [Compound 117], CN(CCc1ccccn1)C(=O)c1cccc(-c2ccc(/C=C3/C(=O)Nc4ccc(Cl)cc43)o2)c1 [Compound 171] is lower in inhibition at 2 µM: 19.2% for the first, -0.11% for the second.

Going from Cn1ccnc1CNC(=O)c1cccc(-c2ccc(/C=C3/C(=O)Nc4ccc(Cl)cc43)o2)c1 [Compound 119] to O=C1Nc2ccc(Cl)cc2/C1=C\c1ccc(-c2cccc(C(=O)NCCc3ccc(O)cc3)c2)o1 [Compound 179], the inhibition at 2 µM falls from 37% to 18.4%.

Going from CN(C)C1CCN(C(=O)c2ccccc2-c2ccc(/C=C3/C(=O)Nc4ccccc43)o2)CC1 [Compound 61] to CN(C)C1CCN(C(=O)c2cc(-c3ccc(/C=C4/C(=O)Nc5ccc(F)cc54)o3)ccc2Cl)CC1 [Compound 75], the inhibition at 2 µM rises from -2.65% to 27.8%.

First: O=C1Nc2ccccc2/C1=C\c1ccc(-c2ccc(C(=O)NCCN3CCCC3)c(F)c2)o1 [Compound 159]
Second: O=C1Nc2ccccc2/C1=C\c1ccc(-c2cc(F)cc(C(=O)NCCN3CCCC3)c2)o1 [Compound 79]
The inhibition at 2 µM of the first is lower: 11.3% for the first, 43.3% for the second.

Going from CN1CCCCC1CNC(=O)c1cccc(-c2ccc(/C=C3/C(=O)Nc4ccc([N+](=O)[O-])cc43)o2)c1 (stereo not drawn) [Compound 53] to CN1CCCCC1CNC(=O)c1cccc(-c2ccc(/C=C3/C(=O)Nc4ccc(C#N)cc43)o2)c1 (stereo not drawn) [Compound 46], the inhibition at 2 µM falls from 23.5% to -0.36%.

Going from CN1CCC(N(C)C(=O)c2cccc(-c3coc(/C=C4/C(=O)Nc5ccc(F)cc54)c3)c2)C1 (stereo not drawn) [Compound 91] to CCN1CCCC1CNC(=O)c1cccc(-c2coc(/C=C3/C(=O)Nc4ccc(F)cc43)c2)c1 (stereo not drawn) [Compound 90], the inhibition at 2 µM rises from 2.87% to 17.1%.

Compared with O=C1Nc2ccc(Cl)cc2/C1=C\c1ccc(-c2ccc(Cl)c(C(=O)NCCN3CCCC3)c2)o1 [Compound 106], CN1CCCN(C(=O)c2ccc(-c3ccc(/C=C4/C(=O)Nc5ccccc54)o3)cc2F)CC1 [Compound 160] is lower in inhibition at 2 µM: 22.2% for the first, -17.1% for the second.

First: CCN1CCCC1CNC(=O)c1ccc(-c2ccc(/C=C3/C(=O)Nc4ccccc43)o2)cn1 (stereo not drawn) [Compound 130]
Second: Cn1cncc1CNC(=O)c1cccc(-c2coc(/C=C3/C(=O)Nc4ccc(F)cc43)c2)c1 [Compound 92]
The inhibition at 2 µM of the first is higher: 24.3% for the first, 12.7% for the second.

same assay, conditions: Table 1; given for compounds with IC50 at or below 2 micromolar; 15 uM ATP; read-out: PIM-1 IC50

CN1CCC(N(C)C(=O)c2cccc(-c3ccc(/C=C4/C(=O)Nc5ccc(Cl)cc54)o3)c2)C1 (stereo not drawn) [Compound 109] and CCN(CC)CCNC(=O)c1cccc(-c2ccc(/C=C3/C(=O)Nc4ccc(Cl)cc43)o2)c1 [Compound 120] cannot be ordered by pIC50: > 5.70 for the first, > 5.70 for the second.

CCN(CC)CCC(=O)Nc1cccc(-c2ccc(/C=C3/C(=O)Nc4ccccc43)o2)c1 [Compound 185] and O=C1Nc2ccccc2/C1=C\c1ccc(-c2ccc(CO)cc2)o1 [Compound 164] cannot be ordered by pIC50: > 6.00 for the first, > 5.70 for the second.

Cc1cc(-c2cccc(C(=O)NCc3cncn3C)c2)oc1/C=C1/C(=O)Nc2ccccc21 [Compound 158] and Cn1cncc1CNC(=O)c1ccc(-c2ccc(/C=C3/C(=O)Nc4ccccc43)o2)cn1 [Compound 132] cannot be ordered by pIC50: > 5.70 for the first, > 6.00 for the second.

O=C1Nc2ccc(F)cc2/C1=C\c1ccc(-c2cccc(C(=O)NCc3ccncc3)c2)o1 [Compound 21] and O=C1Nc2ccc(Cl)cc2/C1=C\c1ccc(-c2cncc(C(=O)O)c2)o1 [Compound 146] cannot be ordered by pIC50: > 5.70 for the first, > 5.70 for the second.

O=C1Nc2ccccc2/C1=C\c1ccc(-c2cc(F)cc(C(=O)NCCN3CCCC3)c2)o1 [Compound 79] and O=C1Nc2ccc(Cl)cc2/C1=C\c1ccc(-c2cncc(C(=O)NCCN3CCCC3)c2)o1 [Compound 147] cannot be ordered by pIC50: > 5.70 for the first, > 6.00 for the second.

same assay, conditions: Table 3; DMSO 4%; read-out: PIM1: IC50 (DMSO 4%)

CN1CCN(c2ccc(-c3ccc(/C=C4\C(=O)Nc5ccc(Cl)cc54)o3)cn2)CC1 was tested, and the pIC50 was > 6.00.
